# Measurements reported in US10131652B2, “Pyrimidinyloxy benzene derivatives as herbicides” (E. I. DU PONT DE NEMOURS AND COMPANY, priority 2014, dated 2018).
# Legend:
# Type in all cases: in vivo
# [1] = tested on: galium (catchweed bedstraw, Galium aparine); test: Test B postemergence plant response
# Procedure, shortened: (§1)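 Weeds grown in loam soil/sand pots were sprayed postemergence at 2 to 10 cm height, one- to two-leaf stage. After approximately 10 days in greenhouse, injury was rated visually against untreated controls on a 0 (no effect) to 100 (complete control) scale; dash means no test result.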
# [2] = tested on: blackgrass (Alopecurus myosuroides); test: Test B postemergence plant response
# Procedure, shortened: as §1
# [3] = tested on: rice (Oryza sativa); test: Test C flooded paddy test plant response; conditions: Flood, 250 g ai/ha; scale of 0 to 100 where 0 is no effect and 100 is complete control; 13 to 15 days
# Procedure, shortened: (§2)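 2-leaf plants; flood 3 cm, cpd into paddy water; greenhouse 13–15 d; visual score vs untreated, 0 = no effect, 100 = complete control; dash = no result.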
# [4] = tested on: barnyardgrass (Echinochloa crus-galli); test: Test C flooded paddy test plant response; conditions: Flood, 250 g ai/ha; scale of 0 to 100 where 0 is no effect and 100 is complete control; 13 to 15 days
# Procedure, shortened: as §2
# [5] = tested on: small-flower umbrella sedge (Cyperus difformis); test: Test C flooded paddy test plant response; conditions: Flood, 250 g ai/ha; scale of 0 to 100 where 0 is no effect and 100 is complete control; 13 to 15 days
# Procedure, shortened: as §2
# [6] = tested on: ducksalad (Heteranthera limosa); test: Test C flooded paddy test plant response; conditions: Flood, 250 g ai/ha; scale of 0 to 100 where 0 is no effect and 100 is complete control; 13 to 15 days
# Procedure, shortened: as §2
# [7] = tested on: barnyardgrass (Echinochloa crus-galli); test: Test B pre-/postemergence plant response
# Procedure, shortened: (§3)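 Seeds in loam–sand blend given preemergence soil spray; separately, plants at one- to two-leaf stage (2–10 cm) sprayed postemergence, compounds in non-phytotoxic solvent with surfactant. Injury rated visually versus untreated controls after ~10 days in greenhouse, 0 (no effect) to 100 (complete control).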
# [8] = tested on: wheat (Triticum aestivum); test: Test B pre-/postemergence plant response
# Procedure, shortened: as §3
# [9] = tested on: giant foxtail (Setaria faberii); test: Test B pre-/postemergence plant response
# Procedure, shortened: as §3
# [10] = tested on: pigweed (Amaranthus retroflexus); test: Test B pre-/postemergence plant response
# Procedure, shortened: as §3
# [11] = tested on: ragweed (common ragweed, Ambrosia elatior); test: Test B pre-/postemergence plant response
# Procedure, shortened: as §3
# [12] = tested on: Italian ryegrass (Lolium multiflorum); test: Test B pre-/postemergence plant response
# Procedure, shortened: as §3
# [13] = tested on: kochia (Kochia scoparia); test: Test B pre-/postemergence plant response
# Procedure, shortened: as §3
# [14] = tested on: corn (Zea mays); test: Test B pre-/postemergence plant response
# Procedure, shortened: as §3
# [15] = Postemergence, 1000 g ai/ha, 0 to 100 scale (0 no effect, 100 complete control)
# [16] = Preemergence, 1000 g ai/ha, 0 to 100 scale (0 no effect, 100 complete control)
# [17] = 125 g ai/ha, postemergence, 0 to 100 scale, 0 no effect, 100 complete control
# [18] = Postemergence, 500 g ai/ha, 0 to 100 scale (0 no effect, 100 complete control)
# [19] = Preemergence, 125 g ai/ha, 0 to 100 scale (0 no effect, 100 complete control)
# [20] = Preemergence, 500 g ai/ha, 0 to 100 scale where 0 is no effect and 100 is complete control
# [21] = Postemergence, 31 g ai/ha, 0 to 100 scale (0 no effect, 100 complete control)
# [22] = 31 g ai/ha, Preemergence, 0 to 100 scale where 0 is no effect and 100 is complete control
# [23] = Preemergence, 125 g ai/ha, 0 to 100 scale where 0 is no effect and 100 is complete control
compound,measurement,setting,value
Cc1cc(-c2ccccc2Oc2ncc(Cl)cn2)sn1 [Compound 171],"Plant response rating, Galium",[1]; [15],100
same,"Plant response rating, Blackgrass",[2]; [15],80
same,Rice plant response rating,[3],0
same,Barnyardgrass plant response rating,[4],0
same,"Sedge, Umbrella plant response rating",[5],0
same,Ducksalad plant response rating,[6],0
same,"Plant response rating, Barnyardgrass",[7]; [15],30
same,"Plant response rating, Barnyardgrass",[7]; [16],70
same,"Plant response rating, Wheat",[8]; [15],30
same,"Plant response rating, Foxtail, Giant",[9]; [15],100
same,"Plant response rating, Foxtail, Giant",[9]; [16],100
same,"Plant response rating, Pigweed",[10]; [15],100
same,"Plant response rating, Pigweed",[10]; [16],100
same,"Plant response rating, Ragweed",[11]; [15],30
same,"Plant response rating, Ragweed",[11]; [16],0
same,"Plant response rating, Ryegrass, Italian",[12]; [15],10
same,"Plant response rating, Ryegrass, Italian",[12]; [16],10
same,"Plant response rating, Kochia",[13]; [15],100
same,"Plant response rating, Kochia",[13]; [16],90
same,"Plant response rating, Corn",[14]; [15],10
Cn1ccnc1-c1ccccc1Oc1ncc(Cl)cn1 [Compound 151],"Plant response rating, Galium",[1]; [17],0
same,"Plant response rating, Galium",[1]; [18],0
same,"Plant response rating, Blackgrass",[2]; [17],0
same,"Plant response rating, Blackgrass",[2]; [18],0
same,Rice plant response rating,[3],0
same,Barnyardgrass plant response rating,[4],0
same,"Sedge, Umbrella plant response rating",[5],0
same,Ducksalad plant response rating,[6],0
same,"Plant response rating, Barnyardgrass",[7]; [17],0
same,"Plant response rating, Barnyardgrass",[7]; [18],0
same,Barnyardgrass plant response rating,[7]; [19],0
same,"Plant response rating, Barnyardgrass",[7]; [20],0
same,"Plant response rating, Wheat",[8]; [17],0
same,"Plant response rating, Wheat",[8]; [18],0
same,"Plant response rating, Foxtail, Giant",[9]; [17],0
same,"Plant response rating, Foxtail, Giant",[9]; [18],0
same,"Foxtail, Giant plant response rating",[9]; [19],0
same,"Plant response rating, Foxtail, Giant",[9]; [20],0
same,"Plant response rating, Pigweed",[10]; [17],0
same,"Plant response rating, Pigweed",[10]; [18],0
same,Pigweed plant response rating,[10]; [19],0
same,"Plant response rating, Pigweed",[10]; [20],0
same,"Plant response rating, Ragweed",[11]; [17],0
same,"Plant response rating, Ragweed",[11]; [18],0
same,Ragweed plant response rating,[11]; [19],0
same,"Plant response rating, Ragweed",[11]; [20],0
same,"Plant response rating, Ryegrass, Italian",[12]; [17],0
same,"Plant response rating, Ryegrass, Italian",[12]; [18],0
same,"Ryegrass, Italian plant response rating",[12]; [19],0
same,"Plant response rating, Ryegrass, Italian",[12]; [20],0
same,"Plant response rating, Kochia",[13]; [17],0
same,"Plant response rating, Kochia",[13]; [18],0
same,Kochia plant response rating,[13]; [19],0
same,"Plant response rating, Kochia",[13]; [20],0
same,"Plant response rating, Corn",[14]; [17],0
same,"Plant response rating, Corn",[14]; [18],0
Cc1csc(-c2c(C#N)cccc2Oc2ncc(Cl)cn2)c1 [Compound 238],"Plant response rating, Galium",[1]; [17],40
same,"Plant response rating, Galium",[1]; [21],0
same,"Plant response rating, Blackgrass",[2]; [17],0
same,"Plant response rating, Blackgrass",[2]; [21],0
same,Rice plant response rating,[3],15
same,Barnyardgrass plant response rating,[4],20
same,"Sedge, Umbrella plant response rating",[5],65
same,Ducksalad plant response rating,[6],45
same,"Plant response rating, Barnyardgrass",[7]; [22],0
same,"Plant response rating, Barnyardgrass",[7]; [17],30
same,"Plant response rating, Barnyardgrass",[7]; [21],0
same,Barnyardgrass plant response rating,[7]; [19],40
same,"Plant response rating, Wheat",[8]; [17],0
same,"Plant response rating, Wheat",[8]; [21],0
same,"Plant response rating, Foxtail, Giant",[9]; [22],0
same,"Plant response rating, Foxtail, Giant",[9]; [17],10
same,"Plant response rating, Foxtail, Giant",[9]; [21],0
same,"Foxtail, Giant plant response rating",[9]; [19],20
same,"Plant response rating, Pigweed",[10]; [22],0
same,"Plant response rating, Pigweed",[10]; [17],20
same,"Plant response rating, Pigweed",[10]; [21],10
same,Pigweed plant response rating,[10]; [19],10
same,"Plant response rating, Ragweed",[11]; [22],0
same,"Plant response rating, Ragweed",[11]; [17],0
same,"Plant response rating, Ragweed",[11]; [21],0
same,Ragweed plant response rating,[11]; [19],0
same,"Plant response rating, Ryegrass, Italian",[12]; [22],0
same,"Plant response rating, Ryegrass, Italian",[12]; [17],0
same,"Plant response rating, Ryegrass, Italian",[12]; [21],0
same,"Ryegrass, Italian plant response rating",[12]; [19],0
same,"Plant response rating, Kochia",[13]; [22],0
same,"Plant response rating, Kochia",[13]; [17],80
same,"Plant response rating, Kochia",[13]; [21],20
same,Kochia plant response rating,[13]; [19],0
same,"Plant response rating, Corn",[14]; [17],20
same,"Plant response rating, Corn",[14]; [21],0
CC(C)n1ncnc1-c1ccccc1Oc1ncc(Cl)cn1 [Compound 123],"Plant response rating, Galium",[1]; [17],0
same,"Plant response rating, Galium",[1]; [18],0
same,"Plant response rating, Blackgrass",[2]; [17],0
same,"Plant response rating, Blackgrass",[2]; [18],0
same,Rice plant response rating,[3],0
same,Barnyardgrass plant response rating,[4],0
same,"Sedge, Umbrella plant response rating",[5],30
same,Ducksalad plant response rating,[6],0
same,"Plant response rating, Barnyardgrass",[7]; [17],0
same,"Plant response rating, Barnyardgrass",[7]; [18],0
same,"Plant response rating, Barnyardgrass",[7]; [23],0
same,"Plant response rating, Barnyardgrass",[7]; [20],0
same,"Plant response rating, Wheat",[8]; [17],0
same,"Plant response rating, Wheat",[8]; [18],0
same,"Plant response rating, Foxtail, Giant",[9]; [17],0
same,"Plant response rating, Foxtail, Giant",[9]; [18],0
same,"Plant response rating, Foxtail, Giant",[9]; [23],0
same,"Plant response rating, Foxtail, Giant",[9]; [20],0
same,"Plant response rating, Pigweed",[10]; [17],0
same,"Plant response rating, Pigweed",[10]; [18],0
same,"Plant response rating, Pigweed",[10]; [20],0
same,"Plant response rating, Ragweed",[11]; [17],0
same,"Plant response rating, Ragweed",[11]; [18],0
same,"Plant response rating, Ragweed",[11]; [20],0
same,"Plant response rating, Ryegrass, Italian",[12]; [17],0
same,"Plant response rating, Ryegrass, Italian",[12]; [18],0
same,"Plant response rating, Ryegrass, Italian",[12]; [20],0
same,"Plant response rating, Kochia",[13]; [17],0
same,"Plant response rating, Kochia",[13]; [18],0
same,"Plant response rating, Kochia",[13]; [23],0
same,"Plant response rating, Kochia",[13]; [20],0
same,"Plant response rating, Corn",[14]; [17],0
same,"Plant response rating, Corn",[14]; [18],0
